# In patent publication US8476023B2, “Methods relating to aromatase inhibitor pharmacogenetics” (The Penn State Research Foundation, priority 2009, dated 2013):
# What was measured:
# [1] = tested on: human liver microsomes (HLM), UGT2B17 (*2/*2) genotype; assay: Kinetic analysis of glucuronidation by individual HLM from UGT2B17 (*2/*2) subjects; format: in vitro ADME; conditions: per mg HLM protein
# [2] = as above; format: in vitro ADME, human; conditions: human, liver microsomes of UGT2B17 (*2/*2) subjects
# [3] = tested on: human liver microsomes (HLM); assay: Rate of exemestane-17-O-glucuronide formation in a series of 110 HLM by UGT2B17 genotype; format: in vitro ADME; conditions: 9.4 μM 17-dihydroexemestane, p<0.001
# [4] = target: T1, UGT1A4^24Pro/48Leu (Homo sapiens, UniProt P22310); assay: Glucuronidation assay, UGT1A4 24Pro/48Leu-overexpressing HEK293 cell homogenate; format: in vitro ADME; conditions: UGT 1A4 as worded in text; up to 600 μM substrate
# T1 construct: expressed in transfected cells; host or cells: HEK293
# T1 sequence (P22310 29-534): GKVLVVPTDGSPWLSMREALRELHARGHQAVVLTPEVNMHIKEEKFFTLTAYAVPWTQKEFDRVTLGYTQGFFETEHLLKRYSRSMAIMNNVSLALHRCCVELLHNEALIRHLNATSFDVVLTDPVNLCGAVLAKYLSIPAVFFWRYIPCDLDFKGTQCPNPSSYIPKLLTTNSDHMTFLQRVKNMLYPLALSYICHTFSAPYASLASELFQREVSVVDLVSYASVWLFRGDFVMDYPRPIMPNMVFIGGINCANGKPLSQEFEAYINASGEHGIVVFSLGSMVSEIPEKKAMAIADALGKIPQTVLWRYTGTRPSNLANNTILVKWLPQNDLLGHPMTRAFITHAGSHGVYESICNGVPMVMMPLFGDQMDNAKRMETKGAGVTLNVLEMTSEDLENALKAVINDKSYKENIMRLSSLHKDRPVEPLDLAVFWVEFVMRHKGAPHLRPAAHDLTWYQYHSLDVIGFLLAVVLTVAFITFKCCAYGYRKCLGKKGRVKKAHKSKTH
# [5] = tested on: UGT1A4^24Thr/48Leu; assay: Glucuronidation assay, UGT1A4 24Thr/48Leu-overexpressing HEK293 cell homogenate; format: in vitro ADME, human; conditions: normalized per μg UGT protein by Western blot
# [6] = tested on: UGT1A4 24Thr/48Leu; assay: as above; format: in vitro ADME, human; conditions: human, pH 7.4
# [7] = tested on: human liver microsomes (HLM), UGT2B17 (*1/*1) genotype; assay: Kinetic analysis of glucuronidation by individual HLM from UGT2B17 (*1/*1) subjects; format: in vitro ADME; conditions: per mg HLM protein
# [8] = as above; format: in vitro ADME, human; conditions: human, liver microsomes of UGT2B17 (*1/*1) subjects
# [9] = target: T2, UGT2B17 (Homo sapiens, UniProt O75795); assay: Glucuronidation assay, UGT2B17-overexpressing HEK293 cell homogenate; format: in vitro ADME; conditions: UGT2B17; up to 600 μM substrate
# T2 construct: expressed in transfected cells; host or cells: HEK293
# T2 sequence (O75795 24-530): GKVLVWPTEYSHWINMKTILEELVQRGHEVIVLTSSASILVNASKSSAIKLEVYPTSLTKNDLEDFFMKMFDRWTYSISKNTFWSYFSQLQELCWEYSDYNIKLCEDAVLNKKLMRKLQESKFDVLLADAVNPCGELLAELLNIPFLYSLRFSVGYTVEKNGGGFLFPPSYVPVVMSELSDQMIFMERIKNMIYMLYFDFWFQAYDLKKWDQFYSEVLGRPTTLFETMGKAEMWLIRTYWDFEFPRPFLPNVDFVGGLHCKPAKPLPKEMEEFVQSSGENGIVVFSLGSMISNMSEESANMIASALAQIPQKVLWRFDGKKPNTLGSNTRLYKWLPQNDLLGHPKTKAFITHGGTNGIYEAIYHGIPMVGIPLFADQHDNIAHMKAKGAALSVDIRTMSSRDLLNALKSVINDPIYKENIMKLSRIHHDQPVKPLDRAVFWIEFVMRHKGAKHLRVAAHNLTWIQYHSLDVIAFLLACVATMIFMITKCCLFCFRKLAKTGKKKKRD
# [10] = tested on: UGTs 1A1, 1A3, 1A6, 1A7, 1A9, 2B4, 2B7, 2B10, 2B11, 2B15; assay: Screening of the other UGT-overexpressing HEK293 cell homogenates for glucuronidation activity; format: in vitro ADME, human; conditions: other UGTs screened; up to 1 mg of UGT overexpressing cell homogenate
# [11] = target: T3, UGT1A8 (Homo sapiens, UniProt Q9HAW9); assay: Glucuronidation assay, UGT1A8-overexpressing HEK293 cell homogenate; format: in vitro ADME; conditions: up to 600 μM substrate
# T3 construct: expressed in transfected cells; host or cells: HEK293
# T3 sequence (Q9HAW9 26-530): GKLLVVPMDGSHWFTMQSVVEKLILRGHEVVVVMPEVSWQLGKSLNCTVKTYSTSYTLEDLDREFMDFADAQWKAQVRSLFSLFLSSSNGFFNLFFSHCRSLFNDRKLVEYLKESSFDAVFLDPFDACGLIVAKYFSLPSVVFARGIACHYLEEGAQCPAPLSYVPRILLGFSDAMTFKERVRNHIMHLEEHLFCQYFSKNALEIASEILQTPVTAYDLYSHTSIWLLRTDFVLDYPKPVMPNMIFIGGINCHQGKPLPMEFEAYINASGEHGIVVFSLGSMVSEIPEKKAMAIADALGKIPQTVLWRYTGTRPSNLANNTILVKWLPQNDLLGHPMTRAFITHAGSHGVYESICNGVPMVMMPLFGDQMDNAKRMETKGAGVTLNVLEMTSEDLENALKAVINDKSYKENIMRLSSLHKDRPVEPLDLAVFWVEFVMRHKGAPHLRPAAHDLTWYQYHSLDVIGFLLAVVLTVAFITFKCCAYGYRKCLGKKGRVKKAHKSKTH
# [12] = target: T4, UGT1A10 (Homo sapiens, UniProt Q9HAW8); assay: Glucuronidation assay, UGT1A10-overexpressing HEK293 cell homogenate; format: in vitro ADME; conditions: UGT1A10; up to 600 μM substrate
# T4 construct: expressed in transfected cells; host or cells: HEK293
# T4 sequence (Q9HAW8 26-530): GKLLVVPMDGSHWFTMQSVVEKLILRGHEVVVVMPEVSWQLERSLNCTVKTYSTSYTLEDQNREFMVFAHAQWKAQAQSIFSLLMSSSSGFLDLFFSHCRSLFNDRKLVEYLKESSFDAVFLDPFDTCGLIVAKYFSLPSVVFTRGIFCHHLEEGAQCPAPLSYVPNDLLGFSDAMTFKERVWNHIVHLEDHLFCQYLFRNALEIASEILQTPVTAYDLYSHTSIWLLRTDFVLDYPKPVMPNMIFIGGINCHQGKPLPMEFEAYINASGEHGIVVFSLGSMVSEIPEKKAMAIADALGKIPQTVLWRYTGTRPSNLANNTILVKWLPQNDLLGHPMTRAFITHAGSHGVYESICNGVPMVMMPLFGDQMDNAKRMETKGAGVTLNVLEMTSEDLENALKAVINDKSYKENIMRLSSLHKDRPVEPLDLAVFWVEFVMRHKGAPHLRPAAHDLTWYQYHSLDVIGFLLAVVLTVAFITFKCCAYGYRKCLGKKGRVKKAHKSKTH
smiles,measurement,setting,value
C=C1C[C@@H]2[C@H](CC[C@]3(C)C(O)CC[C@@H]23)[C@@]2(C)C=CC(=O)C=C12 (stereo partly shown) [17-dihydroexemestane],Vmax,"[1]; HLM # 383, UGT2B17 (*2/*2)",17.0 pmol/min/mg
same,Vmax,"[1]; HLM # 416, UGT2B17 (*2/*2)",5.6 pmol/min/mg
same,Vmax,"[1]; HLM # 2174, UGT2B17 (*2/*2)",13.0 pmol/min/mg
same,Vmax,"[1]; HLM # 2175, UGT2B17 (*2/*2)",2.3 pmol/min/mg
same,Vmax,"[1]; HLM # 3873, UGT2B17 (*2/*2)",8.1 pmol/min/mg
same,"Vmax, mean ± S.D.",[1]; mean of five UGT2B17 (*2/*2) HLM,9.2 ± 5.9 pmol/min/mg
same,Km at 60 min,"[2]; pH 7.4, HLM # 383, UGT2B17 (*2/*2), read-out: KM",9.3 µM
same,Km at 60 min,"[2]; pH 7.4, HLM # 416, UGT2B17 (*2/*2), read-out: KM",17 µM
same,Km at 60 min,"[2]; pH 7.4, HLM # 2174, UGT2B17 (*2/*2), read-out: KM",12.4 µM
same,Km at 60 min,"[2]; pH 7.4, HLM # 2175, UGT2B17 (*2/*2), read-out: KM",13 µM
same,Km at 60 min,"[2]; pH 7.4, HLM # 3873, UGT2B17 (*2/*2), read-out: KM",11 µM
same,Km at 60 min,"[2]; pH 7.4, mean of five UGT2B17 (*2/*2) HLM, read-out: KM, mean ± S.D.",12.8 ± 3 µM
same,decrease in glucuronidation activity in HLM (*2/*2) compared with HLM (*1/*1),[3],14 fold
same,glucuronidation activity in UGT screen,[4],detectable activity
same,Vmax,[5],0.26 ± 0.04 pmol · min^−1 · μg UGT protein^−1
same,Km at 60 min,[6],28 ± 7.8 µM
same,Vmax,"[7]; HLM # 972, UGT2B17 (*1/*1)",51.6 pmol/min/mg
same,Vmax,"[7]; HLM # 1183, UGT2B17 (*1/*1)",322 pmol/min/mg
same,Vmax,"[7]; HLM # 1392, UGT2B17 (*1/*1)",393 pmol/min/mg
same,Vmax,"[7]; HLM # 2167, UGT2B17 (*1/*1)",38.9 pmol/min/mg
same,Vmax,"[7]; HLM # 2412, UGT2B17 (*1/*1)",213 pmol/min/mg
same,"Vmax, mean ± S.D.",[7]; mean of five UGT2B17 (*1/*1) HLM,204 ± 158 pmol/min/mg
same,Km at 60 min,"[8]; pH 7.4, HLM # 972, UGT2B17 (*1/*1), read-out: KM",10.6 µM
same,Km at 60 min,"[8]; pH 7.4, HLM # 1183, UGT2B17 (*1/*1), read-out: KM",7.2 µM
same,Km at 60 min,"[8]; pH 7.4, HLM # 1392, UGT2B17 (*1/*1), read-out: KM",7.1 µM
same,Km at 60 min,"[8]; pH 7.4, HLM # 2412, UGT2B17 (*1/*1), read-out: KM",6.7 µM
same,Km at 60 min,"[8]; pH 7.4, mean of five UGT2B17 (*1/*1) HLM, read-out: KM, mean ± S.D.",7.3 ± 2 µM
same,glucuronidation activity in UGT screen,[9],detectable activity
same,glucuronidation activity in UGT screen,[10],None of the other UGTs screened in assays described herein exhibited any glucuronidation activity
same,glucuronidation activity in UGT screen,[11],detectable activity
same,glucuronidation activity in UGT screen,[12],detectable activity
